Calls of active or inactive are those of the source.
How the values were obtained:
[1] = inhibitors of intracellular T. cruzi replication, confirmation, NIH3T3 host cells, beta-gal luminescence (AID 2044); assay type: functional, cell-based;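 also: intracellular parasites grown in NIH/3T3 mouse fibroblasts as host cells; luminescent beta-galactosidase reporter signal from transgenic T. cruzi replicating inside host cells; inhibitors lower the luminescence signal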
[2] = cytotoxicity toward NIH3T3 fibroblasts, dose response, counter-screen, cell-based, ATP luminescence, mouse fibroblasts (AID 2010); assay type: functional;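 also: cells exposed to compound for about 90 hours before reading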
[3] = HepG2 cell cytotoxicity, dose response, cytotoxicity control, ATP luminescence, cherry-pick, activator set 2 (AID 1053143); assay type: functional, cell-based
cells [4] = assay: cells
Kallikrein-7 = Kallikrein-7 (Homo sapiens, UniProt P49862); assay: Fluorescence Intensity-based biochemical primary high throughput dose response assay to identify activators of kallikrein-7 (K7) zymogen.
HEK293 [5] = assay: NOD1 signaling inhibitors, primary screen, cell-based, luminescence, uHTS (AID 1578); assay type: functional; details: Homo sapiens
HEK293 [6] = assay: cells; assay type: functional, cell-based; details: Homo sapiens
HEK293 [7] = assay: cells; assay type: functional, cell-based; details: Homo sapiens; remark: listed apart in the source
HEK293 [8] = assay: NOD2 signaling inhibitors in MDP-stimulated cells, cell-based, uHTS, luminescence (AID 2001); assay type: functional; details: Homo sapiens
[9] = Shn3 3'UTR reporter inhibitors, dose response, cell-based, Clone20 osteoblasts, firefly luciferase, cherry-picked (AID 624132); assay type: functional;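 also: firefly luciferase luminescence from reporter carrying the Shn3 3'UTR in osteoblasts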
[10] = HepG2 cell cytotoxicity, dose response, cytotoxicity control for Shn3 inhibitor project, CellTiter-Glo, cherry-picked (AID 624134); assay type: functional, cell-based
[11] = control 3'UTR Renilla luciferase suppression, dose response, counter-screen for Shn3 inhibitor project, cell-based, Clone20-Shn3RL, cherry-picked (AID 624133); assay type: functional
Galanin receptor type 3 = biological target: T1, Galanin receptor type 3 (Homo sapiens, UniProt O60755); assay: Fluorescence-based cell-based primary high throughput dose response assay to identify antagonists of the Galanin Receptor 3 (GalR3).; assay type: functional
T1 sequence (O60755 whole entry): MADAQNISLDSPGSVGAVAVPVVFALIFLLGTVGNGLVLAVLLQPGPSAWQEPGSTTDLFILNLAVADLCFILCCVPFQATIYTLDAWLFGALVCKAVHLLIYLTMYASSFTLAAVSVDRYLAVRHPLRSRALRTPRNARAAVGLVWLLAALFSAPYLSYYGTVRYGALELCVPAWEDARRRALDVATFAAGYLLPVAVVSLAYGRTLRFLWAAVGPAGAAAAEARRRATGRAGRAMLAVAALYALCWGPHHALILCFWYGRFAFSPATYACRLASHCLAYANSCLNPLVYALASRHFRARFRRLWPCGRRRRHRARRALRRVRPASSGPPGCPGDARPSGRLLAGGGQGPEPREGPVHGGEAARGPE

cells [12] = assay type: functional, cell-based; details: HEK-CNG
[13] = biological target: COUP transcription factor 2 (Homo sapiens, UniProt P24468); assay: Luminescence-based cell-based high throughput dose response assay to identify inhibitors of COUP-TFII (NR2F2).; assay type: functional;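 also: HEK293 cells transiently cotransfected with COUP-TFII expression vector and reporter; luciferase reporter luminescence driven by COUP-TFII from the pX2-168 reporter plasmid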
Paired box protein Pax-8 = Paired box protein Pax-8 (Homo sapiens, UniProt Q06710); assay: inhibitors of PAX8-driven TPO luciferase reporter, dose response, RMG-I cells, cherry-pick (AID 687027); assay type: functional, cell-based;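 also: luciferase reporter driven by Pax8 target thyroperoxidase promoter measured by SteadyGlo luminescence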
[14] = IOSE-T80 ovarian epithelial cell cytotoxicity, dose response, cytotoxicity control for PAX8 inhibitor project, plate reader, dry powder samples (AID 743045); assay type: functional, cell-based
[15] = NIH:OVCAR-3 ovarian cancer cell cytotoxicity, dose response, PAX8 inhibitor project, plate reader, dry powder samples (AID 743044); assay type: functional, cell-based
[16] = cytotoxicity in OVCAR8 ovarian cancer cells, dose response, PAX8 project, cell-based, plate reader, dry powder samples (AID 743197); assay type: functional; details: OVCAR-8
[17] = biological target: 1-phosphatidylinositol 4,5-bisphosphate phosphodiesterase gamma-1 (Homo sapiens, UniProt P19174); assay: Counterscreen for inhibitors of phospholipase C isozymes (PLC-B3): Fluorescence-based biochemical high throughput dose response assay to identify inhibitors of phospholipase C isozymes (PLC-gamma1).
[18] = biological target: 1-phosphatidylinositol 4,5-bisphosphate phosphodiesterase beta-3 (Homo sapiens, UniProt Q01970); assay: Fluorescence-based biochemical high throughput dose response assay to identify inhibitors of phospholipase C isozymes (PLC-B3).
[19] = human group III sPLA2 inhibitors, dose response, biochemical, QFRET, IC50 (AID 743457);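 also: green fluorescence rise as the enzyme cleaves BODIPY PC-A2 in liposomes; potency for inhibition of the enzyme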

Kallikrein-7, sequence (P49862 whole entry): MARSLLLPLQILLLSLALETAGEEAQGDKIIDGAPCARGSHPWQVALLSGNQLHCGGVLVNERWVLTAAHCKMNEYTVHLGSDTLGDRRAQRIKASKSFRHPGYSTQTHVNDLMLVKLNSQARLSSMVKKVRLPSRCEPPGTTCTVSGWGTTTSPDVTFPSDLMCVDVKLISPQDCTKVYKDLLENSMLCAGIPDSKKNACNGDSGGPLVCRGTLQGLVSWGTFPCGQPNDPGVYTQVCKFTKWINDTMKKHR
Paired box protein Pax-8, sequence (Q06710 whole entry): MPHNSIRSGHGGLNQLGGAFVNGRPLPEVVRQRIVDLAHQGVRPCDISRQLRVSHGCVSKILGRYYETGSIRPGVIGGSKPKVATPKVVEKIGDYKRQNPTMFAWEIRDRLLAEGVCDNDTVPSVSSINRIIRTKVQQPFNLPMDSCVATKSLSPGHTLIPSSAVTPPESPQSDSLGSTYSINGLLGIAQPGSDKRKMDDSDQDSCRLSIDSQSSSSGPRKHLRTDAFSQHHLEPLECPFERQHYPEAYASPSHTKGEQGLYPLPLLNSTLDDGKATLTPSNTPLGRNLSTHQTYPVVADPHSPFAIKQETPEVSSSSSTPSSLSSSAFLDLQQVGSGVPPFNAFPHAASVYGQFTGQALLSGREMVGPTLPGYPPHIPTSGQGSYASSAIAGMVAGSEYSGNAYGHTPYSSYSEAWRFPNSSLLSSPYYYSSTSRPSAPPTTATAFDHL
1-phosphatidylinositol 4,5-bisphosphate phosphodiesterase beta-3, sequence (Q01970 whole entry): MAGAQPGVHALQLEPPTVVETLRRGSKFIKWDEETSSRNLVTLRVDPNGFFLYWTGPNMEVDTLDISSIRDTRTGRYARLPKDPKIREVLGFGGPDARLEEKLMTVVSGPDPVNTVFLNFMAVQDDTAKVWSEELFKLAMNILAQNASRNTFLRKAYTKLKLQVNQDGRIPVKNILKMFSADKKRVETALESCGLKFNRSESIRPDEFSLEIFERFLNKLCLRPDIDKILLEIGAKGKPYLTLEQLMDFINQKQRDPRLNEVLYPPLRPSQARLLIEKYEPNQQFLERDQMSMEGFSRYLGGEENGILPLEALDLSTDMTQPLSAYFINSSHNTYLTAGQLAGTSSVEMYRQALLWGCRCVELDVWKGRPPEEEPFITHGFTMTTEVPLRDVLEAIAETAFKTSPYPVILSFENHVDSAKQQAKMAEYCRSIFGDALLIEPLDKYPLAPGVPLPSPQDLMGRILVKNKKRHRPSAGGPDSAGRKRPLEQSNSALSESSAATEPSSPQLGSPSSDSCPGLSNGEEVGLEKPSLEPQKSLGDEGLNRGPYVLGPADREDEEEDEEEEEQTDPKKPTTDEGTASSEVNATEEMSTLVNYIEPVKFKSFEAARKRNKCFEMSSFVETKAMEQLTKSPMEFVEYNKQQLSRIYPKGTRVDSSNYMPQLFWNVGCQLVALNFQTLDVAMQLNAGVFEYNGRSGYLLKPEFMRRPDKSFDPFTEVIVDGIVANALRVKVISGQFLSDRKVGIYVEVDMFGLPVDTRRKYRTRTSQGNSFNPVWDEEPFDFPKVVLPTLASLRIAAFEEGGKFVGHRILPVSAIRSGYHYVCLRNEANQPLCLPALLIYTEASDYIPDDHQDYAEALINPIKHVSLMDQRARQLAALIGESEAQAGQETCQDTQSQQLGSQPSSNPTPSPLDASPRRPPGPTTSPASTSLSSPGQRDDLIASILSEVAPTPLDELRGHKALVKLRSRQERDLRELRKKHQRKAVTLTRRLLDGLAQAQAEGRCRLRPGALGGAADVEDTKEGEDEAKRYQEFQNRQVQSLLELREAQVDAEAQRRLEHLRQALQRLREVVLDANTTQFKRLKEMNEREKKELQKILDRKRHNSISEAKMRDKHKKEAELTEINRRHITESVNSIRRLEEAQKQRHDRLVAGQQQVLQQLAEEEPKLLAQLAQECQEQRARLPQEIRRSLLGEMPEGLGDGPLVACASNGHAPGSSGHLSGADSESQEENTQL
COUP transcription factor 2, sequence (P24468 whole entry): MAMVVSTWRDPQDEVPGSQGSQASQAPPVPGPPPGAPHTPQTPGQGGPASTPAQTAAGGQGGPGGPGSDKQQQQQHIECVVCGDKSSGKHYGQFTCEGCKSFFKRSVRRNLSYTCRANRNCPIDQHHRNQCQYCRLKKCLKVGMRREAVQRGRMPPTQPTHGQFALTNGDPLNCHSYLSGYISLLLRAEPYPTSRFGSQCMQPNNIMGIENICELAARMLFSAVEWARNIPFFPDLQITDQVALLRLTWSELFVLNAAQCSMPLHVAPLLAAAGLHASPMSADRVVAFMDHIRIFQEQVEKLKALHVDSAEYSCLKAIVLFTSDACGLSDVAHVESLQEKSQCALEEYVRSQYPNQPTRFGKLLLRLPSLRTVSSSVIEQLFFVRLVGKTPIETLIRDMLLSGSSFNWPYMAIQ
1-phosphatidylinositol 4,5-bisphosphate phosphodiesterase gamma-1, sequence (P19174 whole entry): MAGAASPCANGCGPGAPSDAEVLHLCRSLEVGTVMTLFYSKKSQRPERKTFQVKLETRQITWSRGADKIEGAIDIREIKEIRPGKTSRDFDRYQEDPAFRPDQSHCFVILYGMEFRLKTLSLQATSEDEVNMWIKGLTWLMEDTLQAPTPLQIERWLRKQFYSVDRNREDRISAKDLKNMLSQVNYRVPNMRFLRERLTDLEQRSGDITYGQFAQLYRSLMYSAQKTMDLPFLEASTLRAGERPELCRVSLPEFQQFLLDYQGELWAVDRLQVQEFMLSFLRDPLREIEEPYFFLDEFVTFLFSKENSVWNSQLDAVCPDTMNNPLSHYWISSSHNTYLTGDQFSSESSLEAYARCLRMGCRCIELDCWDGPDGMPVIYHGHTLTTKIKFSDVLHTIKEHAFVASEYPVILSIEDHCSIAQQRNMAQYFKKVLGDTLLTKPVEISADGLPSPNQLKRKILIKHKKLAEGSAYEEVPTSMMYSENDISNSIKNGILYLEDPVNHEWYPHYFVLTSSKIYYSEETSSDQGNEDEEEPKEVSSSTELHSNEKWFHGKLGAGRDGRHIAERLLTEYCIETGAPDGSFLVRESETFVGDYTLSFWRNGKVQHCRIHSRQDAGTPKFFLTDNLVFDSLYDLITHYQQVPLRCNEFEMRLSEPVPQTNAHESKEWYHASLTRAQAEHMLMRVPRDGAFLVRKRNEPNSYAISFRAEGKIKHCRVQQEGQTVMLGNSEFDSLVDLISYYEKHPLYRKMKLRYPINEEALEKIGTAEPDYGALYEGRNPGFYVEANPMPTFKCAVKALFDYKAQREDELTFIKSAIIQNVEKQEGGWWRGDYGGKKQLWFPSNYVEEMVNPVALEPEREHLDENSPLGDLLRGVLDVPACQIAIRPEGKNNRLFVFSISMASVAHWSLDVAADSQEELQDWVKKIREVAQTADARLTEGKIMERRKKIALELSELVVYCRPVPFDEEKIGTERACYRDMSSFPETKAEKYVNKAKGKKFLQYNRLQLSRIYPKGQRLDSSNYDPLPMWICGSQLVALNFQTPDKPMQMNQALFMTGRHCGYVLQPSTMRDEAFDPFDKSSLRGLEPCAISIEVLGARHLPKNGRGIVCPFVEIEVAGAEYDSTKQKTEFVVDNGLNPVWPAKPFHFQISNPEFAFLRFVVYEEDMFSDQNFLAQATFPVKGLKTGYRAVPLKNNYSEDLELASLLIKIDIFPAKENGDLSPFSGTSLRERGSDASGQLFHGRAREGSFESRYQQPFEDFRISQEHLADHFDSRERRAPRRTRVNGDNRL

SMILES: CC1CCC(C(C)C)C(OC(=O)COC(=O)c2cc(O)ccc2N)C1 (configuration not stated)
- EC50 [1]: 4.92 µM (active)
- EC50 [2]: > 60 µM (not active)
- AC50 [3]: 26 µM (active)

SMILES: Sc1nc2ccccc2n2c(S)nnc12
- IC50 (cells [4]): > 138 µM (inactive)

SMILES: CCCc1cc(NCCN(C)C)n2c(nc3ccccc32)c1C#N
- EC50 (Kallikrein-7): > 69.5 µM (inactive)

SMILES: O=C(Cc1ccc(Cl)cc1Cl)Nc1ccncc1Cl
- EC50 (HEK293 [5]): 3.7 µM (active)
- IC50 (HEK293 [6]): 5.77 µM (active)
- IC50 (HEK293 [7]): > 20 µM (inactive)
- IC50 (HEK293 [8]): 6.02 µM (active)
- AC50 [9]: 1.63 µM (active)
- AC50 [10]: 2.91 µM (active)
- AC50 [11]: 3.91 µM (active)
- IC50 (Galanin receptor type 3): 4.44 µM (active)
- EC50 (cells [12]): > 29.9 µM (inactive)
- IC50 [13]: 11.6 µM (inactive)

SMILES: COc1ccc(S(=O)(=O)Nc2ccc3c(c2)C(=O)N([C@H](C)CO)C[C@H](C)[C@H](CN(C)Cc2ccc(C(F)(F)F)cc2)OCCCC[C@H](C)O3)cc1
- AC50 (Paired box protein Pax-8): 9.51 µM (active)
- AC50 [14]: 50.7 µM (active)
- AC50 [15]: 22.9 µM (active)
- AC50 [16]: 31.6 µM (active)

SMILES: CC1=C(C(=O)OCc2ccc([N+](=O)[O-])cc2)N2C(=O)C(NC(=O)Cc3ccccc3)C2SC1 (configuration not stated)
- IC50 [17]: 30.8 µM (inactive)
- IC50 [18]: > 122 µM (inactive)

SMILES: O=C1c2ccccc2C(=O)c2c(Nc3ccc(CCO)cc3)ccc(O)c21
- IC50 [19]: > 122 µM (inactive)

From ChEMBL document CHEMBL1201862, “PubChem BioAssay data set” (2004)
